As usually defined, the IC50 is the midpoint of a concentration-inhibition curve. The low end stands for higher potency, the high end for lower potency.

Results on 20 molecules are retold here after ChEMBL document CHEMBL2375252, “Novel indoline-2,3-dione derivatives as inhibitors of aminopeptidase N (APN)” (Bioorg Med Chem, 2013).

A short description of experiment [1]: Cytotoxicity against human ES2 cells after 48 hrs by MTT assay. Particulars: ES-2, 48 h. (In general: Tetrazolium dyes change colour on reduction, which living cells bring about.)
The target of experiment [2] is T1, Aminopeptidase N (Sus scrofa, UniProt P15145).
T1 sequence (P15145 whole entry): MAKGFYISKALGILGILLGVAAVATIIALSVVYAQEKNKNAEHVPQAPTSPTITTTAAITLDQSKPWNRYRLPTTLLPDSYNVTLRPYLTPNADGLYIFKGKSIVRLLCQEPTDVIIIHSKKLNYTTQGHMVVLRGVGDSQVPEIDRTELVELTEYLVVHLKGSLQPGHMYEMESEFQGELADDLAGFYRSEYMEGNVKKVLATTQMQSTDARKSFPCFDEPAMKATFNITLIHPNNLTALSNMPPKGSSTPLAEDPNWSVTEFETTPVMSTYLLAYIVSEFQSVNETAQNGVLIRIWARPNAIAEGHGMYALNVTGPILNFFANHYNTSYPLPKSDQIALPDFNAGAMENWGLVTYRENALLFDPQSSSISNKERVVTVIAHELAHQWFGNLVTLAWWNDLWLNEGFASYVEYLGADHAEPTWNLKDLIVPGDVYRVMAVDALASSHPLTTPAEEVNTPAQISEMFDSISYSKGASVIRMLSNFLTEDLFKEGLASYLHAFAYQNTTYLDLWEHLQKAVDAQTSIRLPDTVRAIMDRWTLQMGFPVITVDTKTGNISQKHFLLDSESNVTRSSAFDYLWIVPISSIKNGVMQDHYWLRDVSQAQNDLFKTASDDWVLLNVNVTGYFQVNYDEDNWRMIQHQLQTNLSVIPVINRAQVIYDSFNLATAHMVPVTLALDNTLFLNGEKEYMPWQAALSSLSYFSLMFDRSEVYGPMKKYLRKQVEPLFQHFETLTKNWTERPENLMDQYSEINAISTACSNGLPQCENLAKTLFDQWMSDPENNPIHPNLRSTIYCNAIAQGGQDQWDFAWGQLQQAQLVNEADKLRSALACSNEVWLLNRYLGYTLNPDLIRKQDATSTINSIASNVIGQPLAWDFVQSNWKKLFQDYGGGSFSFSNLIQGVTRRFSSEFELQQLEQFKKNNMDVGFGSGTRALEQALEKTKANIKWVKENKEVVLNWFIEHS
The experiment can be described thus: Inhibition of pig kidney microsome aminopeptidase-N using L-leu-p-nitroanilide as substrate incubated for 5 mins prior to substrate addition measured after 30 mins by spectrophotometric analysis.

Experiment [3] concerns the target Histone deacetylase 1/3/5/8 (Homo sapiens, UniProt Q13547+O15379+Q9UQL6+Q9BY41). The experiment can be described thus: Inhibition of HDAC1/3/5/8 in human HeLa cell extract using Boc-Lys-(acetyl)-AMC as substrate incubated for 5 mins prior to substrate addition measured after 30 mins by fluorometric analysis. The format is protein assay.
In experiment [4] the test system is MDA-MB-231. Nature of the experiment: cells. To be noted: Homo sapiens, MDA-MB-231, 48 h.
Description: Cytotoxicity against human MDA-MB-231 cells after 48 hrs by MTT assay
The target of experiment [5] is Aminopeptidase N (Homo sapiens, UniProt P15144). The experiment can be described thus: Inhibition of aminopeptidase-N in human ES2 cells using L-leu-p-nitroanilide as substrate incubated for 5 mins prior to substrate addition measured after 30 mins by spectrophotometric analysis. The format is cell-based.
Aminopeptidase N (Homo sapiens, UniProt P15144), sequence (P15144 whole entry): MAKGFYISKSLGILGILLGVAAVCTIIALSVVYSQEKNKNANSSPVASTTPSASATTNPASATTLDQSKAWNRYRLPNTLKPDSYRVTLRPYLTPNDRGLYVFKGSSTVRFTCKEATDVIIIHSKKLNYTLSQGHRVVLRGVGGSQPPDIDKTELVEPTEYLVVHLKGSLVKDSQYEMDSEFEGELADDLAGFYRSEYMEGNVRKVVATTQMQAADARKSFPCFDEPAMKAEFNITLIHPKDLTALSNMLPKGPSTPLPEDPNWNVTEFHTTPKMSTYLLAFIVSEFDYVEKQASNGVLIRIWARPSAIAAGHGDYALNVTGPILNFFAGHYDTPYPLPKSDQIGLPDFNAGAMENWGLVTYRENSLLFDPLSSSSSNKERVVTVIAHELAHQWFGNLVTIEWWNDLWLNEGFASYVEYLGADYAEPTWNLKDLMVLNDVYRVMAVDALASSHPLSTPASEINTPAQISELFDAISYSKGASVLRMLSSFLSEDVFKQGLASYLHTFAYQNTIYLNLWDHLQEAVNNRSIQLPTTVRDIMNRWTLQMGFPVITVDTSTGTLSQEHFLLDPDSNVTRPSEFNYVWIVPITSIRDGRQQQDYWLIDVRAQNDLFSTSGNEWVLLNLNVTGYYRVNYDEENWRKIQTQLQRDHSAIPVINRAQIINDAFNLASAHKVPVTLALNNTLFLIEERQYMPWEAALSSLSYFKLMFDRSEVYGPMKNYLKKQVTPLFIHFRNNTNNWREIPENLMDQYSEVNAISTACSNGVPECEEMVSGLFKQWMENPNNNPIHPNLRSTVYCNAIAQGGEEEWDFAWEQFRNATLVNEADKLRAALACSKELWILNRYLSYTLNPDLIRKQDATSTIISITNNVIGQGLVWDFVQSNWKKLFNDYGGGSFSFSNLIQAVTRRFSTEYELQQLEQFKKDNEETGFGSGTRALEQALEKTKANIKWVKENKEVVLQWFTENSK

For `CC(C)C[C@H](NC(=O)[C@@H](O)[C@H](N)Cc1ccccc1)C(=O)O` [UBENIMEX], the IC50 in experiment [1] stood at 632 µM.

Take `O=C(CNC(=O)CN1C(=O)C2(OCCO2)c2cc(Br)ccc21)NO`: the concentration for half-maximal inhibition (IC50) in experiment [2] is 6.6 µM; in experiment [3], 0.33 µM.

In experiment [2], `Cc1ccc2c(c1)C1(OCCO1)C(=O)N2CC(=O)NO` displayed an IC50 of 2.63 µM.

For the molecule `O=C(CN1C(=O)C2(OCCCCO2)c2cc(F)ccc21)NO`, the IC50 in experiment [2] was 4.06 µM; in experiment [3], over 100 µM; in experiment [4], 114 µM; in experiment [1], 553 µM; in experiment [5], 15.2 µM.

In experiment [2], `O=C(CN1C(=O)C2(OCCO2)c2cc(Br)ccc21)NC(C(=O)NO)c1ccccc1` (stereo not drawn) came in with an IC50 of over 1000 µM.

In experiment [2], `Cc1ccc2c(c1)C1(OCCCO1)C(=O)N2CC(=O)NO` registered an IC50 of 3.33 µM.

On to `CC[C@H](C)[C@H](NC(=O)CN1C(=O)C2(OCCO2)c2cc(Br)ccc21)C(=O)NO`, for which the IC50 in experiment [2] amounted to 631 µM.

As for `O=C(CN1C(=O)C2(OCCCO2)c2cc(F)ccc21)NO`, the IC50 in experiment [2] was 6.71 µM; in experiment [3] it was over 100 µM; in experiment [4], 576 µM; in experiment [1] it was 457 µM; in experiment [5], 97.5 µM.

On to `O=C(CN1C(=O)C2(OCCCO2)c2cc(Br)ccc21)NO`, for which the IC50 in experiment [2] is 3.4 µM; in experiment [3] it was over 100 µM; in experiment [4] it was 55.1 µM; in experiment [1] it was 137 µM; in experiment [5], 19.7 µM.

With `CC(C)[C@H](NC(=O)CN1C(=O)C2(OCCO2)c2cc(Br)ccc21)C(=O)NO`, the IC50 in experiment [2] was 226 µM.

Turning to `O=C(CN1C(=O)C2(OCCCCO2)c2cc(Cl)ccc21)NO`, the IC50 in experiment [2] was 0.074 µM; in experiment [3], over 100 µM; in experiment [4], 91.5 µM; in experiment [1], 212 µM; in experiment [5] it was 3.12 µM.

Turning to `O=C(CN1C(=O)C2(OCCCO2)c2ccccc21)NO`, the IC50 in experiment [2] is 266 µM.

Molecule `O=C(CN1C(=O)C2(OCCO2)c2cc(Br)ccc21)N[C@@H](Cc1ccccc1)C(=O)NO` gave an IC50 in experiment [2] of 26.4 µM.

On to `O=C(CN1C(=O)C2(OCCCO2)c2cc(Cl)ccc21)NO`, for which the 50% inhibitory concentration (IC50) is 1.3 µM in experiment [2]; over 100 µM in experiment [3]; 259 µM in experiment [4]; 233 µM in experiment [1]; 10.9 µM in experiment [5].

`O=C(CN1C(=O)C2(OCCO2)c2cc(Br)ccc21)NO` showed a half-inhibitory concentration (IC50) in experiment [3] of over 100 µM.

In experiment [2], `CC(C)C[C@H](NC(=O)CN1C(=O)C2(OCCO2)c2cc(Br)ccc21)C(=O)NO` showed an IC50 of 22.5 µM.

With `O=C(CN1C(=O)C2(OCCO2)c2cc(F)ccc21)NO`, the IC50 is 5.3 µM in experiment [2]; over 100 µM in experiment [3]; 180 µM in experiment [4]; 142 µM in experiment [1]; 16.2 µM in experiment [5].

Turning to `O=C(CN1C(=O)C2(OCCO2)c2cc(Cl)ccc21)NO`, the IC50 in experiment [2] is 0.31 µM; in experiment [3], over 100 µM; in experiment [4] it was 177 µM; in experiment [1] it was 167 µM; in experiment [5], 9.58 µM.

Regarding `O=C(CN1C(=O)C2(OCCCCO2)c2cc(Br)ccc21)NO`, the IC50 in experiment [2] was 0.086 µM; in experiment [3] it was over 100 µM; in experiment [4] it was 32.9 µM; in experiment [1] it was 409 µM; in experiment [5], 12.1 µM.

`O=C(CN1C(=O)C2(OCCO2)c2ccccc21)NO` returned a half-maximal inhibitory concentration (IC50) in experiment [2] of 209 µM.
